Experiment [1] in a line: Anti-accretion test (hot roll cells with steel bars and shale chips). The note with it: additive amount per 350 ml test fluid as in fluid description; 50 g Arne clay chips; rolled 30 minutes at room temperature.
The next experiment concerns Skeletonema costatum. Description: Marine algal growth inhibition test (ISO/DP 10253). Format: cell-based. To be noted: concentrations 0.1 to 100.0 mg/l seawater. The procedure:
The test was carried out according the ISO protocol ISO/DP 10253—Water quality—Marine algal growth inhibition test with Skeletonema costatum and Phaeodactylum tricornutum.
A culture of the marine algae Skeletonema costatum was exposed to a series of test concentrations of Additive 1 In addition to a control test, concentrations ranging from 0.1 to 100.0 mg/I seawater were tested. The test lasted for 72 hours, and EC50 (72 hours) was calculated to be higher than 10.0 mg/litre.

Regarding `[Cl-].[K+]` [KCl, potassium chloride, reference compound], in experiment [1], the “accretion % (wt % of shale accreted on metal surface)” value is listed as over 70%.
Take triethanolamine trioleate [Additive 1]: the “accretion % (wt % of shale accreted on metal surface)” value in experiment [1] is given as 10%. The “EC50 (72 hours) algal growth inhibition” value in the experiment with Skeletonema costatum is given as “higher than 10.0 mg/litre”.
